Source: patent US8124594B2, “Methods using phosphatidylserine, lysophosphatidylserine, and/or salts thereof to increase testosterone levels” (Chemi Nutra, LLC, priority 2007, dated 2012)

How the values were obtained:
cortisol response [1] = conditions: cited from earlier work
healthy male subjects = assay: Plasma testosterone response to moderate intensity cycle ergometer exercise after 10 days of oral PS or placebo (double-blind crossover); format: in vivo, human
Protocol: The purpose of the current study was to investigate the efficacy of short-term S-PS supplementation, at dosage levels less than the currently established dose, on testosterone response to acute moderate-intensity exercise. This study aimed to examine the influence of short-term supplementation with a moderate dose of PS (600 mg per day) on plasma concentrations of testosterone before, during, and following moderate intensity exercise in healthy males. 10 healthy male subjects participated in the study. Each subject was assigned to ingest 600 mg PS or placebo per day for 10 days using a double-blind, placebo-controlled, crossover design. Serial venous blood samples were taken at rest, after a 15 minute moderate intensity exercise protocol on a cycle ergometer that consisted of five 3-minute incremental stages beginning at 65% and ending at 85% VO2max, and during a 65 minute passive recovery. Plasma samples were assessed for testosterone for treatment (PS or placebo). PS increased AUC for testosterone to cortisol ratio (184±5%) when compared to placebo (p<0.05).
Subjects. Ten healthy males participated in this study. All subjects in this investigation participated in a familiarization session. During the familiarization session, subjects were informed as to the experimental procedures, completed a personal/medical history form, and signed informed consent statements in adherence with the human subject's guidelines of the American College of Sports Medicine. No subject in this trial was a vegetarian with all subjects reportedly consuming meat in their daily diet.
Each participant completed three testing sessions during the 21-day study. Participants performed a graded exercise test (starting at 50 W, increasing by 50 W increments every 2 minutes) on a cycle ergometer (Gary Fisher Tarpon OS Series Mountain Bike connected to a Computrainer Pro model 8002 RacerMate EBRA™ Approved System with software version 1.1.59) to assess maximal oxygen consumption (VO2max), and were scheduled for testing sessions 2 and 3 (day 11 and day 21). VO2max was determined using a Sensormedic V229 Metabolic System that was calibrated following the recommended technical guidelines (Sensormedics Corporation, Yorba Linda, Calif.). Upon completion of the VO2max test the participants were randomly assigned to one of two groups and received a 10-day supply of either the placebo or PS (600 mg per day of soy-derived PS).
The second and third exercise sessions were performed to determine testosterone responses to exercise induced stress at rest, during exercise, and recovery. On the tenth day of supplementation the participants ingested the last dose of the assigned substance (PS or placebo) and reported to the laboratory at 7 am after an overnight fast. Venous blood samples were taken on arrival (−30) and 30 minutes later, which was just prior to the start of exercise (0). Following the 30 minute rest period, the participants were asked to begin exercising on the cycle ergometer at an exercise intensity calculated to elicit 65% of VO2max. The intensity of exercise was increased automatically by 5% every 3-minute increment until the intensity was at 85% of VO2max (five-three minute stages). After cycling for a total of 15 minutes, the subject stopped exercising and a post-exercise venous blood sample was taken immediately. […]

older males = assay: Effect of PS supplementation on serum and free testosterone of older males with exercise regimens; format: in vivo, human
Protocol: A. subject three, a physically active non smoking […] who took no prescription drugs or alcohol was the first subject. Starting on Day 1, the person consumed 600 mg of Phosphatidylserine (Chemi Nutra, Inc., White Bear Lake, Minn.) for 11 days accompanied by the following cardio and resistance workouts: • Day 1: lifted weights for 1.5 hours and intense cardio exercise, 12 minutes. • Day 2: intense cardio exercise for 28 minutes. • Day 3: easy pace walk, 1.5 mile. • Day 4: intense cardio exercise for 35 minutes. • Day 5: easy pace walk, 2 miles. • Day 6: lifted weights for 1.5 hours. • Days 7 and 8: rest, no exercise. • Day 9 intense cardio exercise, 35 minutes and 12 miles easy pace walk • Day 10: lifted weights 1.5 hours. Blood was drawn at 8:00 am on the first and eleventh day of the study and analyzed for serum and free testosterone by Life Extension National Diagnostics, Inc., Ft. Lauderdale, Fla. Serum testosterone rose from 575 nanograms per decilitier to 665 nanograms per deciliter, a 16% increase. B. The second subject (RJ) is a person. Starting on day 1, RJ consumed 400 mg PS daily for 11 days, accompanied by the following exercise regimens: • Day 2: bicycle ergometer for 30 minutes and elliptical trainer for 30 minutes. • Day 3: tennis singles match for 1.5 hours. • Day 4: treadmill 15 minutes and upper body resistance exercise for 1 hour. • Day 5: elliptical trainer for 45 minutes and resistance exercise for 30 minutes. • Day 6: rest. • Day 7: treadmill for 30 minutes; elliptical trainer for 30 minutes; resistance exercise for 30 minutes. • Day 8: rest. • Day 9: resistance exercise 1.5 hours. • Day 10 elliptical trainer for 1 hour. • Day 11: upper body resistance exercise for 30 minutes. Serum testosterone levels and free testosterone levels were measured on days 1 and 12. Serum testosterone increased from 290 nanograms/deciliter to 437 nanograms/deciliter, an increase of 51%. Free testosterone increased from 11.4 picograms/ml to 18.0 picograms/ml, an increase of 58%. C. The third subject is person one. The person consumed 300 mg PS (Chemi Nutra) daily for 11 days accompanied by a cardio and resistance training workout on days 2-11: • Day 2: 9 miles cycling for 35 minutes; 4 miles running for 40 minutes; 9 miles cycling for 40 minutes. • Day 3: tennis singles match for 1.5 hours. • Day 4: 9 miles cycling for 45 minutes; whole body resistance training for 1 hour; 9 miles cycling for 50 minutes. • Day 5: 9 miles cycling for 30 minutes; 5 miles running for 45 minutes; 9 miles cycling for 30 minutes • Day 6: rest. • Day 7: rest. • Day 8: resistance training 1.5 hours. • Day 9: 9 miles cycling for 50 minutes; upper body resistance exercise 1 hour; 9 miles cycling for 50 minutes. • Day 10: high-intensity resistance training for 30 minutes. • Day 11: 5 miles running for 50 minutes. Serum testosterone levels and free testosterone levels were measured on days 1 and 12. Serum testosterone increased from 734 nanograms/deciliter to 781 nanograms/deciliter, an increase of 6.4%. Free testosterone increased from 22.1 picograms/ml to 27.0 picograms/ml, an increase of 22%.

cortisol response [2] = conditions: 800 mg, cited from earlier work
[3] = subject one, 300 mg daily for 11 days
[4] = subject two, 400 mg daily for 11 days

Substance: phosphatidylserine [PS]
- cortisol response compared to placebo (cortisol response [1]; 400 mg): no significant result
- lowering of cortisol response (cortisol response [1]; 800 mg supplementation): 30%
- increase of AUC for testosterone to cortisol ratio compared to placebo (healthy male subjects; 600 mg PS per day oral for 10 days, 10 healthy males, p<0.05): 184±5%
- increase of plasma testosterone concentrations compared with placebo (healthy male subjects; 600 mg/day S-PS for 10 days): 51±6%
- plasma testosterone levels at the beginning of the exercise compared to placebo (healthy male subjects; 600 mg/day S-PS for 10 days): higher plasma testosterone levels
- increase of testosterone area under the curve versus placebo (healthy male subjects; 600 mg/day S-PS for 10 days, FIG. 2, p=0.02): 37±5%
- mean peak concentration of testosterone (healthy male subjects; 600 mg/day S-PS for 10 days, plasma, placebo 5.5±0.3, P (treatment) 0.13): 8.3 ± 1.7 ng/mL
- increase of free testosterone (older males; [3]): 22%
- increase of serum testosterone (older males; [3]): 6.4%
- free testosterone after treatment (older males; subject one, 300 mg daily for 11 days, day 12, day 1 22.1): 27.0 picograms/ml
- serum testosterone after treatment (older males; subject one, 300 mg daily for 11 days, day 12, day 1 734): 781 nanograms/deciliter
- increase of serum testosterone (older males; subject three, 600 mg for 11 days): 16%
- serum testosterone after treatment (older males; subject three, 600 mg for 11 days, eleventh day, first day 575): 665 nanograms per deciliter
- increase of free testosterone (older males; [4]): 58%
- increase of serum testosterone (older males; [4]): 51%
- free testosterone after treatment (older males; subject two, 400 mg daily for 11 days, day 12, day 1 11.4): 18.0 picograms/ml
- serum testosterone after treatment (older males; subject two, 400 mg daily for 11 days, day 12, day 1 290): 437 nanograms/deciliter
- reduction of cortisol response to intensive resistance training (cortisol response [2]): 20%
- effect on testosterone levels (cortisol response [2]; intensive resistance training): no effect
